In patent publication US20250163104A1, “MACROCYCLIC IMMUNOMODULATORS” (priority 2021, published 2025) one finds IC50 data, which are given here for 15 compounds.

pIC50: −log10 of the molar value. Where a SMILES comes first, the peptide text is derived from it. Bridges are numbered along the chain shown (N, C = ends). [ ]: non-standard residue; d: D form. Bip = N[C@@H](Cc1ccc(-c2ccccc2)cc1)C(=O)O; Cit = NC(=O)NCCC[C@H](N)C(=O)O; dOrn = NCCC[C@@H](N)C(=O)O; dDab = NCC[C@@H](N)C(=O)O; Orn = NCCC[C@H](N)C(=O)O; dDap = NC[C@@H](N)C(=O)O; Dab = NCC[C@H](N)C(=O)O; Dap = NC[C@H](N)C(=O)O

T1 sequence (Q15116 25-288): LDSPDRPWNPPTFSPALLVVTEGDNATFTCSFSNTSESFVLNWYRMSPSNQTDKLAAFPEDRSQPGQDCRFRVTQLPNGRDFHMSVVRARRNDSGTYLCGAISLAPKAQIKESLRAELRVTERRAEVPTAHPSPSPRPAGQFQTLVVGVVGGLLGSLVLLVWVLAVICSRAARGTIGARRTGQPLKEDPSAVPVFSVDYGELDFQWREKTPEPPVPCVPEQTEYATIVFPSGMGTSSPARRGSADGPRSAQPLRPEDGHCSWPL

This test concerns the target T1, human PD-1 / PD-L1-Ig binding on Jurkat cell line over-expressing human PD-1 (Jurkat-PD-1) (Homo sapiens, UniProt Q15116).
T1 construct: expressed in transfected cells; host or cells: Jurkat
The test is described as follows: Jurkat-PD-1 Cell Binding High-Content Screening Assay (CBA). The settings on record: Jurkat-PD-1 cells, PE-labeled PD-L1-Ig 20 nM final; read-out: Jurkat HPD1_PDL1 IC50. In kind it is cell-based. The method, then: Example 3. Jurkat-PD-1 Cell Binding High-Content Screening Assay (CBA)
Jurkat-PD-1 Cell Binding High-Content Screening Assay (CBA). Phycoerythrin (PE) was covalently linked to the Ig epitope tag of human PD-L1-Ig and fluorescently-labeled PD-L1-Ig was used for binding studies with a Jurkat cell line over-expressing human PD-1 (Jurkat-PD-1). Briefly, 8×10^3 Jurkat-hPD-1 cells were seeded into 384 well plates in 20 μl of DMEM supplemented with 10% fetal calf serum. 100 nL of compound was added to cells followed by incubation at 37° C. for 2 h. Then, 5 μl of PE-labeled PD-L1-Ig (20 nM final), diluted in DMEM supplemented with 10% fetal calf serum. After 1 hour incubation, cells were fixed with 4% paraformaldehyde in dPBS containing 10 μg/ml Hoechst 33342 and then washed 3x in 100 μl dPBS. Data was collected and processed using a Cell Insight NXT High Content Imager and associated software.
With `CC(C)C[C@@H]1NC(=O)[C@H](CCN)NC(=O)[C@@H](CC(C)C)NC(=O)[C@H](C)NC(=O)[C@H](C(C)C)NC(=O)[C@H](Cc2ccc(-c3ccccc3)cc2)NC(=O)[C@H](C(C)C)NC(=O)[C@H](Cc2c[nH]c3ccccc23)NC(=O)[C@H](CC(=O)O)NC(=O)[C@H](Cc2ccc(O)cc2)NC(=O)[C@H](CC(N)=O)NC(=O)CSC[C@@H](C(=O)N[C@@H](C)C(N)=O)NC(=O)[C@H]([C@@H](C)O)NC(=O)[C@H](C(C)C)NC1=O` [Compound 1014] ({CH2CO}-NYDWV[Bip]VA[dL][Dab]LVTCA-NH2; thioether N-14), the pIC50 was 7.78.
On to `CC(C)C[C@@H]1NC(=O)[C@H](CCN)NC(=O)[C@@H](CC(C)C)NC(=O)[C@H](CCCN)NC(=O)[C@H](C(C)C)NC(=O)[C@H](Cc2ccc(-c3ccccc3)cc2)NC(=O)[C@H](C(C)C)NC(=O)[C@H](Cc2c[nH]c3ccccc23)NC(=O)[C@H](CC(=O)O)NC(=O)[C@H](Cc2ccc(O)cc2)NC(=O)[C@H](CC(N)=O)NC(=O)CSC[C@@H](C(=O)N[C@@H](C)C(N)=O)NC(=O)[C@H]([C@@H](C)O)NC(=O)[C@H](C(C)C)NC1=O` [Compound 1015] ({CH2CO}-NYDWV[Bip]V[Orn][dL][Dab]LVTCA-NH2; thioether N-14), for which the pIC50 is 7.62.
As for `CC(C)C[C@@H]1NC(=O)[C@H](CCN)NC(=O)[C@@H](CC(C)C)NC(=O)[C@H](CCCN)NC(=O)[C@H](CCC(=O)O)NC(=O)[C@H](Cc2ccc(-c3ccccc3)cc2)NC(=O)[C@H](C(C)C)NC(=O)[C@H](Cc2c[nH]c3ccccc23)NC(=O)[C@H](CC(=O)O)NC(=O)[C@H](Cc2ccc(O)cc2)NC(=O)[C@H](CC(N)=O)NC(=O)CSC[C@@H](C(=O)N[C@@H](C)C(N)=O)NC(=O)[C@H]([C@@H](C)O)NC(=O)[C@H](C(C)C)NC1=O` [Compound 1016] ({CH2CO}-NYDWV[Bip]E[Orn][dL][Dab]LVTCA-NH2; thioether N-14), the figure is 7.50.
For the compound `CC(C)C[C@@H]1NC(=O)[C@H](CCN)NC(=O)[C@@H](CC(C)C)NC(=O)[C@H](CCCN)NC(=O)[C@H](CCCNC(N)=O)NC(=O)[C@H](Cc2ccc(-c3ccccc3)cc2)NC(=O)[C@H](C(C)C)NC(=O)[C@H](Cc2c[nH]c3ccccc23)NC(=O)[C@H](CC(=O)O)NC(=O)[C@H](Cc2ccc(O)cc2)NC(=O)[C@H](CC(N)=O)NC(=O)CSC[C@@H](C(=O)N[C@@H](C)C(N)=O)NC(=O)[C@H]([C@@H](C)O)NC(=O)[C@H](C(C)C)NC1=O` [Compound 1017] ({CH2CO}-NYDWV[Bip][Cit][Orn][dL][Dab]LVTCA-NH2; thioether N-14), the pIC50 was 7.69.
As for `CC(C)C[C@@H]1NC(=O)[C@H](CCN)NC(=O)[C@@H](CC(C)C)NC(=O)[C@H](CCN)NC(=O)[C@H](CCCNC(N)=O)NC(=O)[C@H](Cc2ccc(-c3ccccc3)cc2)NC(=O)[C@H](C(C)C)NC(=O)[C@H](Cc2c[nH]c3ccccc23)NC(=O)[C@H](CC(=O)O)NC(=O)[C@H](Cc2ccc(O)cc2)NC(=O)[C@H](CC(N)=O)NC(=O)CSC[C@@H](C(=O)N[C@@H](C)C(N)=O)NC(=O)[C@H]([C@@H](C)O)NC(=O)[C@H](C(C)C)NC1=O` [Compound 1018] ({CH2CO}-NYDWV[Bip][Cit][Dab][dL][Dab]LVTCA-NH2; thioether N-14), the figure is 7.68; as for `CC(C)C[C@@H]1NC(=O)[C@H](CCN)NC(=O)[C@@H](CC(C)C)NC(=O)[C@H](CCCCN)NC(=O)[C@H](CCCNC(N)=O)NC(=O)[C@H](Cc2ccc(-c3ccccc3)cc2)NC(=O)[C@H](C(C)C)NC(=O)[C@H](Cc2c[nH]c3ccccc23)NC(=O)[C@H](CC(=O)O)NC(=O)[C@H](Cc2ccc(O)cc2)NC(=O)[C@H](CC(N)=O)NC(=O)CSC[C@@H](C(=O)N[C@@H](C)C(N)=O)NC(=O)[C@H]([C@@H](C)O)NC(=O)[C@H](C(C)C)NC1=O` [Compound 1019] ({CH2CO}-NYDWV[Bip][Cit]K[dL][Dab]LVTCA-NH2; thioether N-14), 7.69.
As to `CC(C)C[C@@H]1NC(=O)[C@H](CCN)NC(=O)[C@@H](CC(C)C)NC(=O)[C@@H](CC(=O)O)NC(=O)[C@H](C(C)C)NC(=O)[C@H](Cc2ccc(-c3ccccc3)cc2)NC(=O)[C@H](C(C)C)NC(=O)[C@H](Cc2c[nH]c3ccccc23)NC(=O)[C@H](CC(=O)O)NC(=O)[C@H](Cc2ccc(O)cc2)NC(=O)[C@H](CC(N)=O)NC(=O)CSC[C@@H](C(=O)N[C@@H](C)C(N)=O)NC(=O)[C@H]([C@@H](C)O)NC(=O)[C@H](C(C)C)NC1=O` [Compound 1021] ({CH2CO}-NYDWV[Bip]V[dD][dL][Dab]LVTCA-NH2; thioether N-14), the pIC50 is 7.57.
As for `CC(C)C[C@@H]1NC(=O)[C@H](CCN)NC(=O)[C@@H](CC(C)C)NC(=O)[C@@H](CN)NC(=O)[C@H](C(C)C)NC(=O)[C@H](Cc2ccc(-c3ccccc3)cc2)NC(=O)[C@H](C(C)C)NC(=O)[C@H](Cc2c[nH]c3ccccc23)NC(=O)[C@H](CC(=O)O)NC(=O)[C@H](Cc2ccc(O)cc2)NC(=O)[C@H](CC(N)=O)NC(=O)CSC[C@@H](C(=O)N[C@@H](C)C(N)=O)NC(=O)[C@H]([C@@H](C)O)NC(=O)[C@H](C(C)C)NC1=O` [Compound 1022] ({CH2CO}-NYDWV[Bip]V[dDap][dL][Dab]LVTCA-NH2; thioether N-14), the figure is 7.75; as for `CC(C)C[C@@H]1NC(=O)[C@H](CCN)NC(=O)[C@@H](CC(C)C)NC(=O)[C@@H](CCN)NC(=O)[C@H](C(C)C)NC(=O)[C@H](Cc2ccc(-c3ccccc3)cc2)NC(=O)[C@H](C(C)C)NC(=O)[C@H](Cc2c[nH]c3ccccc23)NC(=O)[C@H](CC(=O)O)NC(=O)[C@H](Cc2ccc(O)cc2)NC(=O)[C@H](CC(N)=O)NC(=O)CSC[C@@H](C(=O)N[C@@H](C)C(N)=O)NC(=O)[C@H]([C@@H](C)O)NC(=O)[C@H](C(C)C)NC1=O` [Compound 1023] ({CH2CO}-NYDWV[Bip]V[dDab][dL][Dab]LVTCA-NH2; thioether N-14), 8.34.
Take `CC(C)C[C@@H]1NC(=O)[C@H](CCN)NC(=O)[C@@H](CC(C)C)NC(=O)[C@H](CN)NC(=O)[C@H](CCCNC(N)=O)NC(=O)[C@H](Cc2ccc(-c3ccccc3)cc2)NC(=O)[C@H](C(C)C)NC(=O)[C@H](Cc2c[nH]c3ccccc23)NC(=O)[C@H](CC(=O)O)NC(=O)[C@H](Cc2ccc(O)cc2)NC(=O)[C@H](CC(N)=O)NC(=O)CSC[C@@H](C(=O)N[C@@H](C)C(N)=O)NC(=O)[C@H]([C@@H](C)O)NC(=O)[C@H](C(C)C)NC1=O` [Compound 1024] ({CH2CO}-NYDWV[Bip][Cit][Dap][dL][Dab]LVTCA-NH2; thioether N-14): the pIC50 was 7.43.
As to `CC(C)C[C@@H]1NC(=O)[C@H](CCN)NC(=O)[C@@H](CC(C)C)NC(=O)[C@H](CCCCN)NC(=O)[C@H](C(C)C)NC(=O)[C@H](Cc2ccc(-c3ccccc3)cc2)NC(=O)[C@H](C(C)C)NC(=O)[C@H](Cc2c[nH]c3ccccc23)NC(=O)[C@H](CC(=O)O)NC(=O)[C@H](Cc2ccc(O)cc2)NC(=O)[C@H](CC(N)=O)NC(=O)CSC[C@@H](C(=O)N[C@@H](C)C(N)=O)NC(=O)[C@H]([C@@H](C)O)NC(=O)[C@H](C(C)C)NC1=O` [Compound 1025] ({CH2CO}-NYDWV[Bip]VK[dL][Dab]LVTCA-NH2; thioether N-14), the pIC50 was 7.96.
To `CC(C)C[C@@H]1NC(=O)[C@H](CCN)NC(=O)[C@@H](CC(C)C)NC(=O)[C@@H](C)NC(=O)[C@H](C(C)C)NC(=O)[C@H](Cc2ccc(-c3ccccc3)cc2)NC(=O)[C@H](C(C)C)NC(=O)[C@H](Cc2c[nH]c3ccccc23)NC(=O)[C@H](CC(=O)O)NC(=O)[C@H](Cc2ccc(O)cc2)NC(=O)[C@H](CC(N)=O)NC(=O)CSC[C@@H](C(=O)N[C@@H](C)C(N)=O)NC(=O)[C@H]([C@@H](C)O)NC(=O)[C@H](C(C)C)NC1=O` [Compound 1026] ({CH2CO}-NYDWV[Bip]V[dA][dL][Dab]LVTCA-NH2; thioether N-14) belongs 7.97.
To `CC(C)C[C@@H]1NC(=O)[C@H](CCN)NC(=O)[C@@H](CC(C)C)NC(=O)[C@@H](CCCN)NC(=O)[C@H](C(C)C)NC(=O)[C@H](Cc2ccc(-c3ccccc3)cc2)NC(=O)[C@H](C(C)C)NC(=O)[C@H](Cc2c[nH]c3ccccc23)NC(=O)[C@H](CC(=O)O)NC(=O)[C@H](Cc2ccc(O)cc2)NC(=O)[C@H](CC(N)=O)NC(=O)CSC[C@@H](C(=O)N[C@@H](C)C(N)=O)NC(=O)[C@H]([C@@H](C)O)NC(=O)[C@H](C(C)C)NC1=O` [Compound 1027] ({CH2CO}-NYDWV[Bip]V[dOrn][dL][Dab]LVTCA-NH2; thioether N-14) belongs 7.71; to `CC(C)C[C@@H]1NC(=O)[C@H](CCN)NC(=O)[C@@H](CC(C)C)NC(=O)[C@H](CN)NC(=O)[C@H](C(C)C)NC(=O)[C@H](Cc2ccc(-c3ccccc3)cc2)NC(=O)[C@H](C(C)C)NC(=O)[C@H](Cc2c[nH]c3ccccc23)NC(=O)[C@H](CC(=O)O)NC(=O)[C@H](Cc2ccc(O)cc2)NC(=O)[C@H](CC(N)=O)NC(=O)CSC[C@@H](C(=O)N[C@@H](C)C(N)=O)NC(=O)[C@H]([C@@H](C)O)NC(=O)[C@H](C(C)C)NC1=O` [Compound 1028] ({CH2CO}-NYDWV[Bip]V[Dap][dL][Dab]LVTCA-NH2; thioether N-14), 7.84.
In the case of `CC(C)C[C@@H]1NC(=O)[C@H](CCN)NC(=O)[C@@H](CC(C)C)NC(=O)[C@H](CCN)NC(=O)[C@H](C(C)C)NC(=O)[C@H](Cc2ccc(-c3ccccc3)cc2)NC(=O)[C@H](C(C)C)NC(=O)[C@H](Cc2c[nH]c3ccccc23)NC(=O)[C@H](CC(=O)O)NC(=O)[C@H](Cc2ccc(O)cc2)NC(=O)[C@H](CC(N)=O)NC(=O)CSC[C@@H](C(=O)N[C@@H](C)C(N)=O)NC(=O)[C@H]([C@@H](C)O)NC(=O)[C@H](C(C)C)NC1=O` [Compound 1029] ({CH2CO}-NYDWV[Bip]V[Dab][dL][Dab]LVTCA-NH2; thioether N-14), the pIC50 is 8.27.
